# Reference: PMC6437697 (Journal of Medicinal Chemistry, 2019)
# Experiments:
# Test in all cases: KINOMEscan
# Assay type in all cases: binding
# Settings in all cases: read-out: % control activity remaining
# p38-delta = target: T1, p38-delta (Homo sapiens, UniProt O15264)
# T1 construct: purchased Eurofins DiscoverX KINOMEscan
# T1 sequence (O15264 1-365): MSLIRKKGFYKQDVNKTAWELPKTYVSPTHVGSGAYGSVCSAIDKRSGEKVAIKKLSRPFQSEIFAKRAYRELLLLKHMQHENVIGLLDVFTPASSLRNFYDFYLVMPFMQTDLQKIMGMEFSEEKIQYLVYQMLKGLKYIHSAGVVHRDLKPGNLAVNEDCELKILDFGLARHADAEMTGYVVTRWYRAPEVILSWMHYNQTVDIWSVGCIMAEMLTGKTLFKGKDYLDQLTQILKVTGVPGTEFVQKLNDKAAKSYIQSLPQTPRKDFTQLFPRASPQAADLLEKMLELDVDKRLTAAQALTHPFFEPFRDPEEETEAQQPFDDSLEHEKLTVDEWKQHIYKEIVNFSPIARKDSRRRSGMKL
# PIK3CA(E545A) = target: T2, PIK3CA(E545A) (Homo sapiens, UniProt P42336, E545A)
# T2 construct: purchased Eurofins DiscoverX KINOMEscan
# PAK7 = target: T3, PAK7 (Homo sapiens, UniProt Q9P286)
# T3 construct: purchased Eurofins DiscoverX KINOMEscan
# CAMK2B = target: T4, CAMK2B (Homo sapiens, UniProt Q13554)
# T4 construct: purchased Eurofins DiscoverX KINOMEscan
# RET(V804L) = target: T5, RET(V804L) (Homo sapiens, UniProt P07949, V804L)
# T5 construct: purchased Eurofins DiscoverX KINOMEscan
# CTK = target: T6, CTK (Homo sapiens, UniProt P42679)
# T6 construct: purchased Eurofins DiscoverX KINOMEscan
# T6 sequence (P42679 1-507): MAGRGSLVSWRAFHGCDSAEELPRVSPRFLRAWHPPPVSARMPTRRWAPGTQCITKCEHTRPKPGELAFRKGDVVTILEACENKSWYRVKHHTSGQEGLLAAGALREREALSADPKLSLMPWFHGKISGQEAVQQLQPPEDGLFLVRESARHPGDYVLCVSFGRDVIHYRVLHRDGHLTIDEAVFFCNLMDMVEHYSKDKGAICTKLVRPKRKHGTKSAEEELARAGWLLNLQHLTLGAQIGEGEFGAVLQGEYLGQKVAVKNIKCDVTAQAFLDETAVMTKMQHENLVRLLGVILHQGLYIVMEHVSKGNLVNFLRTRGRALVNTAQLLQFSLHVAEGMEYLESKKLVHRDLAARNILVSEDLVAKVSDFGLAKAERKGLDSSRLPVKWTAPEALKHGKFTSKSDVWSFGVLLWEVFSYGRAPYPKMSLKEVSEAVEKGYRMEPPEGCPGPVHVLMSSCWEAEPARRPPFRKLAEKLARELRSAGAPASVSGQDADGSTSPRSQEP
# MEK4 = target: T7, MEK4 (Homo sapiens, UniProt P45985)
# T7 construct: purchased Eurofins DiscoverX KINOMEscan
# T7 sequence (P45985 1-399): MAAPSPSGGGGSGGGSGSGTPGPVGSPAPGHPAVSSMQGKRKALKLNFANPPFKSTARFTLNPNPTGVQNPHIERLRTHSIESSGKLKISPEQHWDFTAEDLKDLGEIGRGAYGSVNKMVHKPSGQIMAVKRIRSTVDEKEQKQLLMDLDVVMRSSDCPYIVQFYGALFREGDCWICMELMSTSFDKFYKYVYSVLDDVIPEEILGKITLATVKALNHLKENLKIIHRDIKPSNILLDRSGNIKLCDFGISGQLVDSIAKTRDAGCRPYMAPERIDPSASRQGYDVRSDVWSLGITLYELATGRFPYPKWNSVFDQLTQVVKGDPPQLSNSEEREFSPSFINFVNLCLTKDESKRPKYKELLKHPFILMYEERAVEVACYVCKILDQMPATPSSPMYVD
# CDKL5 = target: T8, CDKL5 (Homo sapiens, UniProt O76039)
# T8 construct: purchased Eurofins DiscoverX KINOMEscan
# T8 sequence (O76039 1-960): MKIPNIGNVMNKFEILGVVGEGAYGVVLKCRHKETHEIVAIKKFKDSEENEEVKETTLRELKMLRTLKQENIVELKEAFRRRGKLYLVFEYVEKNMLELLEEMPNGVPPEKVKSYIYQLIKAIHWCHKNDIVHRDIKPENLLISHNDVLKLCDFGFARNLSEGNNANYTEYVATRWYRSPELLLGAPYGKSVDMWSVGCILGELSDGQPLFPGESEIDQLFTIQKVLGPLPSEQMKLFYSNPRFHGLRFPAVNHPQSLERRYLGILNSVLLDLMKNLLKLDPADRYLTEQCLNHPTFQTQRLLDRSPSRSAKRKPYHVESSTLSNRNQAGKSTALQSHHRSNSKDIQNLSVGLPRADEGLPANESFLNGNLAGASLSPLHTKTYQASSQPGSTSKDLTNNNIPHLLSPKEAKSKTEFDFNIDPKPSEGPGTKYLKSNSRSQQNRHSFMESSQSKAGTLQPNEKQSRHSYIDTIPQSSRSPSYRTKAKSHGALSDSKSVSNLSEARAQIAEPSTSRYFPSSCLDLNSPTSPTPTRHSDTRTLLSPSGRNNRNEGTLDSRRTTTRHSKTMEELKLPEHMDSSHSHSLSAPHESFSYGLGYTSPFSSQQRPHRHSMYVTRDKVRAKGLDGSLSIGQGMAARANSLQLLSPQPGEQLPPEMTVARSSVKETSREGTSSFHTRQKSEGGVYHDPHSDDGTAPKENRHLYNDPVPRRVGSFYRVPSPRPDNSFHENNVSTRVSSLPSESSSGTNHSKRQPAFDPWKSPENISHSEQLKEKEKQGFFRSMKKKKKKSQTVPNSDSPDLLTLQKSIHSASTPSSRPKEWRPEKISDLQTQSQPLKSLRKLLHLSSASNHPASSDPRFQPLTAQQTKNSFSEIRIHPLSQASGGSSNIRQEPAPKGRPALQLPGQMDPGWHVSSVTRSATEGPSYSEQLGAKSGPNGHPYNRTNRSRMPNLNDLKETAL
# T3 sequence (Q9P286 whole entry): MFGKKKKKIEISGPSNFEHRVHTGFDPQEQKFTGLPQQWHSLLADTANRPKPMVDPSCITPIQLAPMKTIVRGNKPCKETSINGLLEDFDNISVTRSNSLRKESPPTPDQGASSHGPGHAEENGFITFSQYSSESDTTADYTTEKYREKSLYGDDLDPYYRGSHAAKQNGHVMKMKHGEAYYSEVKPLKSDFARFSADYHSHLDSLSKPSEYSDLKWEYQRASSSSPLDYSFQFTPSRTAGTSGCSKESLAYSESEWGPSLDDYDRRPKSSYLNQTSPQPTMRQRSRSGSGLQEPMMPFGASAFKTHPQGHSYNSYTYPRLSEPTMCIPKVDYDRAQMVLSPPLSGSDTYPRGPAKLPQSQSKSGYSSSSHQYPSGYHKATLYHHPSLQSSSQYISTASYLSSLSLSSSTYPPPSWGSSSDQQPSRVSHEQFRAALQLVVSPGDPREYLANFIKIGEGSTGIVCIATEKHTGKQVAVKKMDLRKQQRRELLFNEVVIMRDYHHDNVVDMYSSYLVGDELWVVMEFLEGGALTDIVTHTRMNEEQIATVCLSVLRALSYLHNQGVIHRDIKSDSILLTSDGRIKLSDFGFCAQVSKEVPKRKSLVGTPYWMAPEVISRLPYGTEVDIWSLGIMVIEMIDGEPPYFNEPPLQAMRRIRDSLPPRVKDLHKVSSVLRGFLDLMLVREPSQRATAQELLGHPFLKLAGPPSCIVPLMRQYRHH
# T5 sequence (P07949 29-1114 V804L): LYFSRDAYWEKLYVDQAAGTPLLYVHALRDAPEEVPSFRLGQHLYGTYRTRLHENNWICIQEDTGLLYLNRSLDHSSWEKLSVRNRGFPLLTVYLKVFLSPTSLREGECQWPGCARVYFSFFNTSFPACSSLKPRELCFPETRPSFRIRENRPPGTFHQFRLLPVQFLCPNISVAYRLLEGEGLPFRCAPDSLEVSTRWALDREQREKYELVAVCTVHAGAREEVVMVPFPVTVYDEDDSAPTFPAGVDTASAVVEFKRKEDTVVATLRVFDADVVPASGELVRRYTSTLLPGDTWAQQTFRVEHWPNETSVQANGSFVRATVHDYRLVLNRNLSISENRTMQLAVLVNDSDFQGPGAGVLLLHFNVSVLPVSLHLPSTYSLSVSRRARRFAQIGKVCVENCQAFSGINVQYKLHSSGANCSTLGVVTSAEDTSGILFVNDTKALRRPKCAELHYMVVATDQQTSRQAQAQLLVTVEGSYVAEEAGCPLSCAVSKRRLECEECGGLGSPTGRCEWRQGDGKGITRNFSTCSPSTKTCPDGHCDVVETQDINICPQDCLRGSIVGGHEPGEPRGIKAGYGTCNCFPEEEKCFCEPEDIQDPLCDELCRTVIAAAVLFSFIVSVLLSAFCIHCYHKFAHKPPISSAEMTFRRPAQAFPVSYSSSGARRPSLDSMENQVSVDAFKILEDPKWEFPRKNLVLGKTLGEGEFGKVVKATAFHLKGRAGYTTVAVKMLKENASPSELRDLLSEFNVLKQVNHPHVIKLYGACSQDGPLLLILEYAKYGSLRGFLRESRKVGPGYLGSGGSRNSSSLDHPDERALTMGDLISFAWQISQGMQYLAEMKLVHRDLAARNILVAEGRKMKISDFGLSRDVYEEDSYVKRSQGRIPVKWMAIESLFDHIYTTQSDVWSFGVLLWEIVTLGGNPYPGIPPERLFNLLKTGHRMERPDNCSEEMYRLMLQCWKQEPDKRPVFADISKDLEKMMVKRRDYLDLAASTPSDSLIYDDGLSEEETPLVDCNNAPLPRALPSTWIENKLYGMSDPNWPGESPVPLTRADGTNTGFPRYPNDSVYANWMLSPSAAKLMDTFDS
# T2 sequence (P42336 whole entry E545A): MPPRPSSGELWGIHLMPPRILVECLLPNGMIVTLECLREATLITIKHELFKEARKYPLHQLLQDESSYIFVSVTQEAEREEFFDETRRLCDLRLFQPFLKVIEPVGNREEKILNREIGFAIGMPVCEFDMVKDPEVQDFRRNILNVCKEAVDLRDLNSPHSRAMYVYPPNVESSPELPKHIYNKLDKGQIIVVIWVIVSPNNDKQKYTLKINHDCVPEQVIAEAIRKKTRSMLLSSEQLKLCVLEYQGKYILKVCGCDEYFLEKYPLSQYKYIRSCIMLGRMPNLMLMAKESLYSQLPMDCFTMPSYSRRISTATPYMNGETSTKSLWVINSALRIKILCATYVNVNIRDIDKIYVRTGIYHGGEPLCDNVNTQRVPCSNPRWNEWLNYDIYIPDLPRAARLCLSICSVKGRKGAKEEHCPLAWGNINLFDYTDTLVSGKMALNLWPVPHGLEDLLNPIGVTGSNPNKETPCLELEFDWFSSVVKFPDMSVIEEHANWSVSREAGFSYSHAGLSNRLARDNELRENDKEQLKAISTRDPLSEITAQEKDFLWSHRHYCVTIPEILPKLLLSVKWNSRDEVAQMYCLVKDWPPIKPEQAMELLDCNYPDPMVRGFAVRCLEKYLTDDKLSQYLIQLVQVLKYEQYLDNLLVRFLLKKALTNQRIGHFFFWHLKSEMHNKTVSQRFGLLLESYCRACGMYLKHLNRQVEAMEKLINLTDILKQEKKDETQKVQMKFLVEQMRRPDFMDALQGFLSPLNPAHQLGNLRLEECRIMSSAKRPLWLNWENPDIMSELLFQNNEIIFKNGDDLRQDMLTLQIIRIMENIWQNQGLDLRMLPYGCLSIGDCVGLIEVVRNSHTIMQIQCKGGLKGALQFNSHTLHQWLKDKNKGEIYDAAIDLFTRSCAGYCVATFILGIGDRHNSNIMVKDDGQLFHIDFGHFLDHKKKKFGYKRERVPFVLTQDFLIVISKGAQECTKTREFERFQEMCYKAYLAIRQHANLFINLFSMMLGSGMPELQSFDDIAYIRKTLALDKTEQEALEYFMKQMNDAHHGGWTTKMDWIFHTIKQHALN
# T4 sequence (Q13554 whole entry): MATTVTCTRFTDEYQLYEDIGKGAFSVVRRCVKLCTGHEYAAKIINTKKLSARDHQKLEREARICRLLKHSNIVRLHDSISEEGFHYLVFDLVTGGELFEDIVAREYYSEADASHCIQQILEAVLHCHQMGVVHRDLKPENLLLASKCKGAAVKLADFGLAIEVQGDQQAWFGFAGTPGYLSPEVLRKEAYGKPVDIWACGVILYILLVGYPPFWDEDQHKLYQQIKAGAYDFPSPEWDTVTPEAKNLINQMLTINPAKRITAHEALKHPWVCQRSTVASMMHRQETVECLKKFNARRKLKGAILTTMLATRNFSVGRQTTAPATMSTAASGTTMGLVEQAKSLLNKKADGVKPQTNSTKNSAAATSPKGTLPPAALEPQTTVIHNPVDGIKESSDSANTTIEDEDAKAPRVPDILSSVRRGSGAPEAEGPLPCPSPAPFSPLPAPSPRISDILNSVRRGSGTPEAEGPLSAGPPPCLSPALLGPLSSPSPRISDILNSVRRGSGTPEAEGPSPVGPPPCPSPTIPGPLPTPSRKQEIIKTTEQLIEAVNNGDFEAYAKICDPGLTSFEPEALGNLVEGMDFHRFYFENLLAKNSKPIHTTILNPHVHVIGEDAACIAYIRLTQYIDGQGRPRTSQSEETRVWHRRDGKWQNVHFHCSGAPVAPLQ
SMILES,remaining binding at 1 µM (p38-delta),remaining binding at 1 µM (PIK3CA(E545A)),remaining binding at 1 µM (PAK7),remaining binding at 1 µM (CAMK2B),remaining binding at 1 µM (RET(V804L)),remaining binding at 1 µM (CTK),remaining binding at 1 µM (MEK4),remaining binding at 1 µM (CDKL5)
"Clc1cc(NCC2CC2)c2ncc(-c3ccc4[nH]ncc4c3)n2n1 [compound 2, 6-Chloro-N-(cyclopropylmethyl)-3-(1H-indazol-5-yl)imidazo[1,2-b]pyridazin-8-amine]",89%,88%,98%,90%,100%,91%,75%,100%
O=C(CN1CCOCC1)N[C@H]1CC[C@H](Nc2cc(Cl)nn3c(-c4ccc5[nH]ncc5c4)cnc23)CC1 [compound 26],60%,100%,93%,69%,88%,95%,100%,46%
"CN1CCC(CNc2cc(Cl)nn3c(-c4cc5nc(Nc6ccccc6)[nH]c5cc4F)cnc23)CC1 [compound 31, 6-Chloro-3-(6-fluoro-2-(phenylamino)-1H-benzo[d]imidazol-5-yl)-N-((1-methylpiperidin-4-yl)methyl)imidazo[1,2-b]pyridazin-8-amine]",72%,78%,95%,100%,92%,69%,100%,96%
